Test results reported in US7169568B2, “Method for screening molecules that exert a neurotrophic effect through activation of neurotrophin receptors” (New York University, priority 2000, dated 2007).

System: hippocampal neurons
Experiment: Cell death assay (LDH release), hippocampal neurons after B27 withdrawal
Format: cell-based, rat
Description: . In FIG. 6A, NGF-differentiated PC12 cells were prepared and then NGF and serum were withdrawn for 48 hours as described in the Materials and Methods section of Example 1. Upon NGF withdrawal, various concentrations of CGS 21680 (CGS) were added to the media. CON =No Addition. […] In FIG. 6B, hippocampal neurons were prepared and B27 was withdrawn for 48 hrs as described in the Materials and Methods section of Example 1. Upon B27 withdrawal, various concentrations of CGS 21680 (CGS) were added to the media. […] All LDH levels were quantitated and % cell death calculated as described in the Materials and Methods section of Example 1. All bars depict mean+SEM from three independent experiments.
Hippocampal Cell Cultures. Dissociated primary cultures of hippocampal neurons from embryonic day 17 (E17) rats were prepared from timed-pregnant Sprague-Dawley rats as described previously (Aibel et al, 1998). Fetuses were removed under sterile conditions and kept in PBS on ice for microscopic dissection of the hippocampus. The meninges were removed and the tissue was placed in Neurobasal media (Gibco BRL). The tissue was briefly minced with fine forceps and then triturated with a fire polished pasteur pipet. Cells were counted and then plated on culture wells coated with 0.01 mg/ml poly-D-lysine overnight. Hippocampal cells were maintained in Neurobasal media, containing B27 supplement and L-glutamine (0.5 mM). Experiments were conducted 7–10 days after plating.
Hippocampal neurons were maintained in Neurobasal media containing B27 supplement and 0.5 mM L-glutamine for 10 days. B27 was then removed, and adenosine agonists or BDNF (100 ng/ml) was added to the media. MK-801 (1 μM) was added to all conditions, to decrease the contribution of NMDA-mediated cell death. After 48 hrs, cell death was assessed by measurement of LDH released into media.

CCNC(=O)[C@H]1O[C@@H](n2cnc3c(N)nc(NCCc4ccc(CCC(=O)O)cc4)nc32)[C@H](O)[C@@H]1O [CGS 21680, 2-[(4-(2-carboxyethyl)phenylethyl)]aminoadenosine-5′-N-ethylcarboxamide]
Cells rescued (48 hrs after B27 withdrawal, absence of BDNF, LDH release): greater than 60%
Dose dependence of survival action (various concentrations upon B27 withdrawal): dose-dependent
